Measured values as given in US20260200849A1, “CATIONIC LIPIDS AND PREPARATION METHOD THEREOF” (RiboX Therapeutics HK Limited, priority 2024, published 2026).
“And” between values parts separate entries of the source, which are not always exact repeats. Equal values may be shown once. Read-outs that look alike come from different tables or passages of the source.

Columns and labels:
[1] = LNP size and polydispersity index (PDI) by dynamic light scattering (Zetasizer); assay type: physicochemical; details: for Size (nm): RNA No. 331
Description: (§1) The LNP size and polydispersity index (PDI), determined by dynamic light scattering (DLS), and zeta potential were measured by a Zetasizer machine (Malvern). RNA concentration and encapsulation efficacy (EE %) were analyzed by the Quant-IT Ribogreen kit by calculating the percentage encapsulation at 100%—(RNA-LNPs/RNA-LNPs with Triton X-100).

[2] = RNA encapsulation efficacy (EE %) by Quant-IT Ribogreen kit; assay type: physicochemical; details: LNP
Description: as §1

Hep G2 cells [3] = assay: In vitro expression: luciferase activity in Hep G2 cells transfected with RNA-LNPs; assay type: cell-based; details: 100 ng/mL RNA-LNPs, 72 hours post transfection
Description: 2E5 Hep G2 cells were transfected with 100 ng/mL of RNA-LNPs encoding for firefly-luciferase. At 72 hours post transfection, the cells were washed and lysed. The luciferase expression (2-well repeat) was determined in the cell lysates with the luciferase assay reagent kit (Promega), according to the kit protocol, luciferase activity was measured by a luminometer.

Hep G2 cells [4] = assay: In vitro toxicity: Hep G2 cell viability by CellTiter-Glo; assay type: cell-based; details: 72 hours post transfection, cell only = 100%
Description: 2E5 Hep G2 cells were transfected with 1 μg/mL RNA-LNPs. At 72 hours post transfection, cell viability (2-well repeat) was determined with the CellTiter-Glo® reagent kit, according to the kit protocol, measured by a luminometer. Cell only as control (100%).
The cell viability was calculated according to the following formula: […]

Balb/c mice = assay: In vivo expression by IV, 0.05 mg/kg luciferase RNA-LNPs, IVIS luminescence; details: female Balb/c mice, 0.05 mg*kg−1 intravenous; for Liver (p/s) (Mean) / Spleen (p/s) (Mean) / Whole body (p/s) (Mean): Formulation No. 001, RNA No. 331, 24-hours post injection
In short: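 Female Balb/c mice (7-8 weeks, N=3) received 0.05 mg*kg−1 firefly-luciferase RNA-LNPs IV. Luciferin (15 mg/ml) was given IP at 24 and 72 h post-dose for IVIS whole-body luminescence. A second run imaged whole body, liver and spleen at 24 h only.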

C57BL/6J mice [5] = assay: In vivo expression by ID, whole-body/injection site skin/lymph node luminescence; details: intradermal 0.15 mg/kg, 72 h post injection, female C57BL/6J mice N=3, Formulation 001, RNA 331
Description: 7-8 week old, female C57BL/6J mice (N=3) were injected with 0.15 mg*kg−1 of RNA-LNPs encoding for firefly-luciferase by intradermal injection. At 72-hours post injection, animals were intraperitoneally injected with 15 mg/mi of Luciferin substrate and whole-body/injection site skin/lymph node luminescence were determined by a bioluminescent in vivo imaging system (IVIS).

injection site skin = assay: In vivo tolerability after intradermal injection: H&E staining of injection site skin; parameters: species or system C57BL/6J mice; key to Infiltration, mononuclear cells, dermis/subcutaneous, focal, Grade / Edema, subcutaneous, focal, Grade / Erosion, focal, Grade / Skin, Grade: 1==minimal; 2=mild; 3=moderate; 4=marked; 5=severe; N=Normal; NA=Not applicable; —=No data; details: intradermal 0.15 mg/kg, 72 h, Formulation 001, RNA 331
Description: 7-8 week old, female C57BL/6J mice (N=3) were injected with 0.15 mg*kg−1 of RNA-LNIPs encoding for firefly-luciferase by intradermal injection. At 72-hours post injection, injection site skin from each animal was collected in 10% formalin, for H&E staining. PBS group (N=2) as control. (Note: 1==minimal, 2=mild, 3=moderate, 4=marked, 5=severe; N=Normal; NA=Not applicable; —=No data)

MCP-1 = assay: In vivo tolerability by IV: serum MCP-1 by Luminex; parameters: species or system C57BL/6J mice; details: Formulation No. 001, RNA No. 331, male C57BL/6J mice, 1.0 mg*kg/1 intravenous; for MCP-1 at 2 h: 2 hours post injection; for MCP-1 at 24 h: 24 hours post injection
In short: (§2)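 Male C57BL/6J mice aged 6-8 weeks (N=3) received 1.0 mg*kg−1 firefly-luciferase RNA-LNPs intravenously, with PBS as negative control. Serum taken at 2 and 24 h post-injection was assayed for MCP-1 and IL-6 by Luminex.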

IL-6 = assay: In vivo tolerability by IV: serum IL-6 by Luminex; parameters: species or system C57BL/6J mice; details: Formulation No. 001, RNA No. 331, male C57BL/6J mice, 1.0 mg*kg/1 intravenous; for IL-6 at 2 h: 2 hours post injection; for IL-6 at 24 h: 24 hours post injection
In short: as §2

C57BL/6J mice [6] = assay: In vivo expression by IV, 1.0 mg/kg luciferase RNA-LNPs, whole-body and organ IVIS luminescence; details: Formulation No. 001, RNA No. 331; male C57BL/6J mice, 1.0 mg*kg−1 intravenous, 24-hours post injection
In short: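 Male C57BL/6J mice, 6-8 weeks old (N=3), received 1.0 mg*kg−1 firefly-luciferase RNA-LNPs IV. At 24 h post-dose, luciferin (15 mg/ml) was given IP, and whole-body, liver, spleen, kidney, small and large intestine luminescence was imaged by IVIS.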

[7] = In vivo lipid metabolism by IV: ionizable lipid concentration in plasma and liver by LC-MS/MS; parameters: species or system Sprague-Dawley (SD) rats; details: IV 0.15 mg/kg RNA-LNPs (hEPO), male SD rats, individual animals N=3; for concentration at 6 h: male, Sprague-Dawley, rat, iv, 0.15 mg/kg
Description: In Vivo Lipid Metabolism by IV 7-8 week old, male Sprague-Dawley (SD) rats (N=3) were injected with 0.15 mg*kg−1 of RNA-LNPs encoding for hEPO by intravenous injection. At 1-/6-/96-/168-hours post injection, about 100 μL blood will be harvested and immediately added to the EDTAK2 containing tube. Place on wet ice and then centrifuged at 3000 g×5 min to obtain plasma. 30 μL plasma will be aliquoted to the 1.5 mL tubes. At terminal 6-/168-hours post injection, the rats will be euthanized with CO2, hemorrhaged immediately with cardiac puncture, respectively. The livers were harvested, weighed and washed with saline, then put into 50 ml centrifuge tube placed in liquid nitrogen, then transferred into wet ice, and finally stored at −80° C. immediately. Both plasma and liver samples were used for ionizable lipid concentration quantification by LC-MS/MS. The lower limit of quantitation (LLOQ) is 1 ng/mL in plasma or 11 ng/g in liver. BQL—Below the lower limit of quantitation (LLOQ).

[8] = Formulation No. 001, RNA No. 331
[9] = Formulation No. 010, RNA No. 331
[10] = Formulation No. 001 (Ionizable lipid:DSPC:cholesterol:DMG-PEG2000 = 50:10:38.5:1.5, N/P 6)
[11] = Formulation No. 001, RNA No. 019 (hEPO)
[12] = Formulation No. 001, RNA No. 331 (firefly-luciferase)
[13] = Formulation No. 001, RNA No. 331, 1 μg/mL RNA-LNPs
[14] = liver, 6 h post injection, read-out: Liver (ng/g), ionizable lipid concentration

Row | PDI [1, 8] | EE (%) [2, 8] [%] | Size (nm) [1, 10] [nm] | PDI [1, 11] | Size [1, 11] [nm] | EE (%) [2, 11] [%] | Compound | In vitro Expression (Mean) (Hep G2 cells [3]; [12]) | In vitro cell viability (%) (Mean) (Hep G2 cells [4]; [13]) | Liver (p/s) (Mean) (Balb/c mice) | Spleen (p/s) (Mean) (Balb/c mice) | Whole body (p/s) (Mean) (Balb/c mice) | MCP-1 at 2 h (MCP-1) [pg/mL] | MCP-1 at 24 h (MCP-1) [pg/mL] | IL-6 at 2 h (IL-6) [pg/mL] | IL-6 at 24 h (IL-6) [pg/mL] | Kidney (p/s) (C57BL/6J mice [6]) | Large intestine (p/s) (C57BL/6J mice [6]) | Liver (p/s) (C57BL/6J mice [6]) | Small intestine (p/s) (C57BL/6J mice [6]) | Spleen (p/s) (C57BL/6J mice [6]) | further results
1 | 0.05 | 97.08 |  |  |  |  | CCCCC/C=C\C/C=C\CCCCCCCC(=O)N[C@H](COC(=O)NCCN1CCCCCC1)C(=O)OCCCCCC(=O)OC(CCCCCCCC)CCCCCCCC [Lipid 730] |  |  |  |  |  |  |  |  |  |  |  |  |  |  | Size [1, 8]: 76.53 nm; Size (nm) ([1]; Formulation No. 010 (Ionizable lipid:DSPC:cholesterol:DSPE-PEG2000 = 38:30:30:2, N/P 6)): 59.50 nm; PDI [1, 9]: 0.09; EE (%) [2, 9]: 96.20%; In vitro Expression (Mean) (Hep G2 cells [3]; Formulation 001, RNA 331): 5.98E+05; In vitro Expression (Mean) (Hep G2 cells [3]; Formulation No. 010, RNA No. 331 (firefly-luciferase)): 7.72E+05; In vitro cell viability (%) (Mean) (Hep G2 cells [4]; 1 μg/mL RNA-LNPs, Formulation 001, RNA 331): 75.29%; In vitro cell viability (%) (Mean) (Hep G2 cells [4]; Formulation No. 010, RNA No. 331, 1 μg/mL RNA-LNPs): 98.64%; Whole body at 24 h (p/s) (Mean) (Balb/c mice; Formulation No. 010, RNA No. 331, 24 hours post injection): 2.24E+08 p/s; Whole body at 72 h (p/s) (Mean) (Balb/c mice; Formulation No. 010, RNA No. 331, 72 hours post injection): 8.49E+07 p/s; Injection site Skin (p/s) (C57BL/6J mice [5]): 1.63E+07 p/s; Lymph node (p/s) (C57BL/6J mice [5]): 3.33E+06 p/s; Whole body (p/s) (C57BL/6J mice [5]): 2.81E+07 p/s; Edema, subcutaneous, focal, Grade (injection site skin; per animal): 1; Erosion, focal, Grade (injection site skin; per animal): —; Infiltration, mononuclear cells, dermis/subcutaneous, focal, Grade (injection site skin; per animal): 1; Total score (injection site skin; sum of lesion grades of the group (N=3)): 6
2 | 0.03 | 95.74 | 70.72 | 0.08 | 70.30 | 93.44 | CCCCCCCCCC(=O)OCCCCCCCOC(=O)C(COC(=O)NCCN1CCCCCC1)NC(=O)OCCCCCCCCOC(=O)C(CCCCCC)CCCCCCCC (centres unmarked) [Lipid 934] | 5.28E+05 | 94.29 | 6.73E+08 | 2.04E+08 | 1.87E+09 | 1360 | 229 | 40.7 | 7.83 | 4.10E+07 | 1.17E+08 | 1.82E+09 | 6.60E+08 | 1.17E+09 | Whole body (p/s) (C57BL/6J mice [6]): 2.46E+09 p/s; Plasma (ng/mL), ionizable lipid concentration ([7]; 1 h post injection): 3316 ng/mL and 5944 ng/mL and 9980 ng/mL; Plasma (ng/mL), ionizable lipid concentration ([7]; 6 h post injection): 691 ng/mL and 8.59 ng/mL; concentration at 6 h [7, 14]: 14 ng/g
3 | 0.03 | 98.24 | 64.33 | 0.05 | 58.16 | 94.15 | CCCCC/C=C\C/C=C\CCCCCCCCOC(=O)NC(COC(=O)NCCN1CCCCCC1)C(=O)OCCCCCC(=O)OCC(CCCCCCCC)CCCCCCCCCC (centres unmarked) [Lipid 911] | 5.01E+05 | 81.84 | 5.42E+08 | 1.27E+08 | 1.17E+09 | 2000 | 254 | 28.5 | 4.43 | 3.75E+07 | 8.42E+07 | 7.97E+09 | 6.47E+08 | 8.51E+08 | Whole body (p/s) (C57BL/6J mice [6]): 7.27E+09 p/s; Plasma (ng/mL), ionizable lipid concentration ([7]; 1 h post injection): 7622 ng/mL and 5572 ng/mL and 3130 ng/mL; Liver (ng/g), ionizable lipid concentration ([7]; 6 h post injection): 29536 ng/g and 35435 ng/g; Plasma (ng/mL), ionizable lipid concentration ([7]; 6 h post injection): 298 ng/mL and 2.59 ng/mL and 3.41 ng/mL; Liver (ng/g), ionizable lipid concentration ([7]; 168 h post injection): 890 ng/g and 1331 ng/g and 618 ng/g; concentration at 6 h [7, 14]: 29400 ng/g
4 | 0.03 | 91.27 | 81.86 | 0.14 | 90.32 | 93.99 | CCCCC/C=C\CCOC(=O)CCCCCOC(=O)C(COC(=O)NCCN1CCCCCC1)NC(=O)OCCCCCCCCOC(=O)C(CCCCCC)CCCCCCCC (centres unmarked) [Lipid 955] | 2.53E+05 | 95.28 | 7.00E+08 | 9.11E+07 | 2.15E+09 | 3350 | 580 | 1140 | 7.13 | 4.80E+07 | 3.44E+08 | 1.98E+09 | 6.59E+08 | 2.12E+09 | Whole body (p/s) (C57BL/6J mice [6]): 4.06E+09 p/s; Plasma (ng/mL), ionizable lipid concentration ([7]; 1 h post injection): 6059 ng/mL and 23590 ng/mL and 15983 ng/mL; Liver (ng/g), ionizable lipid concentration ([7]; 6 h post injection): 703 ng/g and 396 ng/g; Plasma (ng/mL), ionizable lipid concentration ([7]; 6 h post injection): 11.9 ng/mL and 22 ng/mL; concentration at 6 h [7, 14]: 668 ng/g; concentration at 6 h ([7]; plasma, 6 h post injection, read-out: Plasma (ng/mL), ionizable lipid concentration): 17 ng/mL
